{
  "source": "patent US20230039395A1",
  "about": "“LSD AND […] EQUIVALENCE DETERMINATION” (Universitätsspital Basel, priority 2021, published 2023)",
  "key": {"[1]": {"test": "Spontaneously reported adverse events after treatment", "format": "in vivo, human", "details": "for type and amount of adverse events, psilocybin versus LSD: in vivo; for flash back episodes: within 72 hours after administration, nine episodes in five subjects", "description": "(§1) The subjects then underwent baseline measurements.\nIn addition to the adverse effects systematically assessed with the list of complaints, there were spontaneously reported adverse events after LSD or psilocybin administration as assessed in the evening of the treatment day or within 48 hours after treatment. These adverse after effects after psilocybin or LSD administration included headaches (four subjects after psilocybin and three after LSD), migraine attack (one subject after LSD), nosebleeds (one subject after psilocybin), low mood (two subjects after psilocybin and two subjects after LSD), nausea (two subjects after psilocybin and one subject after LSD), nightmares (one subject after psilocybin), restlessness (one subject after psilocybin and one subject after LSD), vivid dreams (one subject after LSD), insomnia (one subject after psilocybin), involuntary movement in lower extremities (one subject after LSD). Nine flash back episodes occurred in five subjects (one to 20 times within 72 hours after substance administration), five episodes occurred after LSD administration, four episodes occurred after psilocybin administration."}, "[2]": {"test": "Endocrine effects: plasma cortisol and prolactin (PRL)", "format": "in vivo, human", "details": "2.5 hours after administration", "description": "as §1\nEndocrine effects: Plasma concentrations of cortisol, prolactin (PRL), oxytocin, and brain-derived neurotrophic factor (BDNF) were determined as described elsewhere (Holze et al., 2021; Schmid et al., 2015). Cortisol and PRL were measured before and 2.5 hours after drug administration. BDNF was measured before and three times after drug administration.\nThe criterion for significance was p<0.05."}, "[3]": {"test": "Dose equivalence of LSD and psilocybin extrapolated from acute effects", "format": "in vivo, human", "details": "LSD 200 μg"}, "[4]": {"details": "75 μg LSD base in saline i.v., previous studies; cited from earlier work"}, "[5]": {"target": "serotonin (5-HT)2A receptors (Homo sapiens, UniProt P28223)", "sequence (P28223 whole entry)": "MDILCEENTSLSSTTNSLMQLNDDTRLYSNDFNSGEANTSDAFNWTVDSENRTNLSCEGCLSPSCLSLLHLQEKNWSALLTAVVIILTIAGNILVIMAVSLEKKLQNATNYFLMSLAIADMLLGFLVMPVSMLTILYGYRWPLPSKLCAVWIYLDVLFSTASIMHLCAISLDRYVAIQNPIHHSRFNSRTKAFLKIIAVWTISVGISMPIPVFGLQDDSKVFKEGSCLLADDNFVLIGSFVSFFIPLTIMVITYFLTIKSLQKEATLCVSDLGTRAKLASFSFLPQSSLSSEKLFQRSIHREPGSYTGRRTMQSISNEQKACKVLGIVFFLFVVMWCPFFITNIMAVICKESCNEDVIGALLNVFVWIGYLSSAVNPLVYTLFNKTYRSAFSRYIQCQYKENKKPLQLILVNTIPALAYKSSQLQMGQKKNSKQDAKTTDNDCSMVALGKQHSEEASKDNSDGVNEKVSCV", "details": "cited from earlier work"}, "[6]": {"tested_on": "D1-3 receptors", "details": "cited from earlier work"}, "[7]": {"details": "after the 200 μg dose as two 100 μg LSD capsules (Steuer et al., 2017); cited from earlier work"}, "[8]": {"details": "four unused old LSD capsules, years after study completion; cited from earlier work"}, "[9]": {"test": "Acute adverse effects, 66-item List of Complaints", "details": "for headache, number of subjects reporting: 0-12 hours, high dose; for headache, number of subjects reporting / balance disturbed, number of subjects / dry mouth, number of subjects reporting: 28 subjects"}, "[10]": {"test": "Adjective Mood Rating Scale (AMRS) in healthy subjects"}, "[11]": {"test": "Mystical Experience Questionnaire (MEQ43 and MEQ30) in healthy subjects", "details": "LSD 200 μg; MEQ43 p=0.002, MEQ30 p=0.015"}, "[12]": {"test": "Plasma exposure of LSD and iso-LSD after LSD capsules in previous studies", "details": "similar bioavailability assumed"}, "[13]": {"test": "Subjective drug effects on visual analog scales (VAS) in healthy subjects"}, "[14]": {"test": "5 Dimensions of Altered States of Consciousness Scale (5D-ASC) in healthy subjects"}, "[15]": {"test": "Autonomic effects (blood pressure, heart rate, body temperature, pupil) in healthy subjects", "details": "for rate pressure product: high dose of both substances"}, "[16]": {"target": "5-HT transporter (SERT) (Homo sapiens, UniProt P31645)", "sequence (P31645 whole entry, species assumed)": "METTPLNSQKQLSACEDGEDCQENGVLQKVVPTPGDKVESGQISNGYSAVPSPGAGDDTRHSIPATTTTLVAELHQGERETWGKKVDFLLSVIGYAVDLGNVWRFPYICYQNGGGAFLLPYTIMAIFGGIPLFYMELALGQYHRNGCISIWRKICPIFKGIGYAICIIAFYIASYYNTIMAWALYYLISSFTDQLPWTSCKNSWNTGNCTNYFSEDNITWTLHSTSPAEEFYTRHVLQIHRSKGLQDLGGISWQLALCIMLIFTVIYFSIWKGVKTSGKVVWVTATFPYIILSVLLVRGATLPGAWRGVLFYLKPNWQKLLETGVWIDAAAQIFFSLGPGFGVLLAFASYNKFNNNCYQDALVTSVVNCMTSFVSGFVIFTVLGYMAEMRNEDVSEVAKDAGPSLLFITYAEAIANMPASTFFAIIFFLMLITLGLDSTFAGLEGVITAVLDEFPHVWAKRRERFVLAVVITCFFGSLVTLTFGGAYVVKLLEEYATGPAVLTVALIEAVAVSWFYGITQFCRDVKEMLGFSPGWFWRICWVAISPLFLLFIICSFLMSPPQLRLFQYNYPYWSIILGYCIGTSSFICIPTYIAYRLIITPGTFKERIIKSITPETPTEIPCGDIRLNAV", "details": "cited from earlier work"}, "[17]": {"details": "evening of treatment day or within 48 hours"}},
  "data": [
    {"compound": "CCN(CC)C(=O)[C@@H]1C=C2c3cccc4[nH]cc(c34)C[C@H]2N(C)C1", "note": "[LSD, lysergic acid diethylamide]", "values": [
      {"measurement": "headaches, spontaneously reported", "setting": "[1]; [17]", "value": "three"},
      {"measurement": "involuntary movement in lower extremities, spontaneously reported", "setting": "[1]; [17]", "value": "one"},
      {"measurement": "low mood, spontaneously reported", "setting": "[1]; [17]", "value": "two"},
      {"measurement": "migraine attack, spontaneously reported", "setting": "[1]; [17]", "value": "one"},
      {"measurement": "nausea, spontaneously reported", "setting": "[1]; [17]", "value": "one"},
      {"measurement": "restlessness, spontaneously reported", "setting": "[1]; [17]", "value": "one"},
      {"measurement": "vivid dreams, spontaneously reported", "setting": "[1]; [17]", "value": "one"},
      {"measurement": "type and amount of adverse events, psilocybin versus LSD", "setting": "[1]", "value": "comparable"},
      {"measurement": "flash back episodes", "setting": "[1]", "value": "five"},
      {"measurement": "PRL plasma concentrations", "setting": "[2]", "value": "significantly increased"},
      {"measurement": "cortisol plasma concentrations", "setting": "[2]", "value": "significantly increased"},
      {"measurement": "overall strength versus the 30 mg psilocybin dose", "setting": "[3]", "value": "overall stronger"},
      {"measurement": "clinical response to 75 μg intravenous LSD versus oral 100 μg dose", "setting": "[4]", "value": "not significantly different"},
      {"measurement": "binding to 5-HT2A receptors", "setting": "[5]", "value": "bind"},
      {"measurement": "action on D1-3 receptors", "setting": "[6]", "value": "stimulates"},
      {"measurement": "plasma AUC24", "setting": "[7]", "value": 21, "unit": "ng·h/mL"},
      {"measurement": "remaining amount of LSD in capsules", "setting": "[8]", "value": "22 ± 7", "unit": "µg"},
      {"measurement": "headache, number of subjects reporting", "setting": "[9]", "value": 13, "unit": "subjects"},
      {"measurement": "balance disturbed, number of subjects", "setting": "[9]", "value": 16, "unit": "subjects"},
      {"measurement": "dry mouth, number of subjects reporting", "setting": "[9]", "value": 15, "unit": "subjects"},
      {"measurement": "frequency of acute adverse effects, LSD versus psilocybin", "setting": "[9]; in vivo", "value": "equally frequent"},
      {"measurement": "most frequent acute adverse effects", "setting": "[9]; in vivo", "value": "fatigue, headache, lack of concentration, lack of energy, dullness, feeling week, loss of appetite, dry mouth, and impaired balance"},
      {"measurement": "total number of acute complaints, 100 versus 200 μg LSD", "setting": "[9]; in vivo", "value": "did not differ"},
      {"measurement": "AMRS emotional excitation versus 15 mg or 30 mg psilocybin", "setting": "[10]; LSD 100 and 200 μg", "value": "greater"},
      {"measurement": "AMRS extraversion ratings versus placebo", "setting": "[10]; all doses", "value": "decrease"},
      {"measurement": "AMRS inactivation ratings versus placebo", "setting": "[10]; all doses", "value": "significantly and similarly increased"},
      {"measurement": "AMRS introversion ratings versus placebo", "setting": "[10]; all doses", "value": "increased"},
      {"measurement": "AMRS self-rated anxiety", "setting": "[10]; both doses of LSD (100 and 200 μg)", "value": "slightly but significantly increased"},
      {"measurement": "MEQ ineffability ratings versus 30 mg psilocybin", "setting": "[11]", "value": "significantly greater"},
      {"measurement": "AUC∞ as percent of the value expected from confirmed 96 μg LSD doses", "setting": "[12]; 100 μg dose", "value": 61, "unit": "%"},
      {"measurement": "AUC∞ as percent of the value expected from confirmed 96 μg LSD doses", "setting": "[12]; 200 μg dose", "value": 76, "unit": "%"},
      {"measurement": "dose-response curve of subjective effects", "setting": "[13]; 15-30 mg psilocybin range compared to 100-200 μg LSD range", "value": "plateau effect"},
      {"measurement": "overall effects and positive drug effects, 200 μg versus 100 μg LSD", "setting": "[13]; LSD 100 and 200 μg oral", "value": "comparable positive drug effects"},
      {"measurement": "bad drug effects, 200 μg versus 100 μg LSD", "setting": "[13]; human, in vivo", "value": "more"},
      {"measurement": "ego dissolution (VAS), 200 μg versus 100 μg LSD", "setting": "[13]; p=0.014", "value": "more and greater"},
      {"measurement": "anxiety (VAS), 200 μg versus 100 μg LSD", "setting": "[13]; p=0.054", "value": "more and near-significantly greater"},
      {"measurement": "alterations of the mind in the 5D-ASC scale", "setting": "[14]; human, in vivo", "value": "marked alterations of the mind"},
      {"measurement": "5D-ASC AED (anxious ego dissolution), 200 μg versus 100 μg LSD", "setting": "[14]; p=0.02", "value": "greater"},
      {"measurement": "5D-ASC anxiety, 200 μg versus 100 μg LSD", "setting": "[14]; p=0.03", "value": "greater"},
      {"measurement": "5D-ASC impairments of control and cognition, 200 μg versus 100 μg LSD", "setting": "[14]; p=0.04", "value": "greater"},
      {"measurement": "increase in heart rate versus psilocybin 30 mg", "setting": "[15]; LSD 200 μg, p=0.002", "value": "significantly more"},
      {"measurement": "rate pressure product", "setting": "[15]", "value": "similarly increased"}
    ]},
    {"compound": "CN(C)CCc1c[nH]c2cccc(O)c12", "note": "[Psilocin, psilocin]", "values": [
      {"measurement": "action on the 5-HT transporter (SERT)", "setting": "[16]", "value": "inhibits"}
    ]},
    {"compound": "CCN(CC)C(=O)[C@H]1C=C2c3cccc4[nH]cc(c34)C[C@H]2N(C)C1", "note": "[iso-LSD]", "values": [
      {"measurement": "plasma AUC24", "setting": "[7]", "value": 9.2, "unit": "ng·h/mL"}
    ]},
    {"compound": "CN(C)CCc1c[nH]c2cccc(OP(=O)(O)O)c12", "note": "[psilocybin]", "values": [
      {"measurement": "headaches, spontaneously reported", "setting": "[1]; [17]", "value": "four"},
      {"measurement": "insomnia, spontaneously reported", "setting": "[1]; [17]", "value": "one"},
      {"measurement": "low mood, spontaneously reported", "setting": "[1]; [17]", "value": "two"},
      {"measurement": "nausea, spontaneously reported", "setting": "[1]; [17]", "value": "two"},
      {"measurement": "nightmares, spontaneously reported", "setting": "[1]; [17]", "value": "one"},
      {"measurement": "nosebleeds, spontaneously reported", "setting": "[1]; [17]", "value": "one"},
      {"measurement": "restlessness, spontaneously reported", "setting": "[1]; [17]", "value": "one"},
      {"measurement": "type and amount of adverse events, psilocybin versus LSD", "setting": "[1]", "value": "comparable"},
      {"measurement": "flash back episodes", "setting": "[1]", "value": "four"},
      {"measurement": "headache, number of subjects reporting", "setting": "[9]", "value": 18, "unit": "subjects"},
      {"measurement": "balance disturbed, number of subjects", "setting": "[9]", "value": 16, "unit": "subjects"},
      {"measurement": "dry mouth, number of subjects reporting", "setting": "[9]", "value": 9, "unit": "subjects"},
      {"measurement": "frequency of acute adverse effects, LSD versus psilocybin", "setting": "[9]; in vivo", "value": "equally frequent"},
      {"measurement": "most frequent acute adverse effects", "setting": "[9]; in vivo", "value": "fatigue, headache, lack of concentration, lack of energy, dullness, feeling week, loss of appetite, dry mouth, and impaired balance"},
      {"measurement": "acute adverse effects versus LSD 100 μg", "setting": "[9]; psilocybin 15 mg, p<0.01", "value": "fewer"},
      {"measurement": "acute adverse effects versus psilocybin 30 mg", "setting": "[9]; psilocybin 15 mg, p<0.1", "value": "trend toward fewer"},
      {"measurement": "rate pressure product", "setting": "[15]", "value": "similarly increased"},
      {"measurement": "increase in diastolic blood pressure versus LSD 200 μg", "setting": "[15]; psilocybin 30 mg, p<0.001", "value": "more"},
      {"measurement": "increase in systolic blood pressure versus LSD 200 μg", "setting": "[15]; psilocybin 30 mg, p=0.04", "value": "more"}
    ]}
  ]
}
